Structures are written as SMILES.

One assay concerns the target D(3) dopamine receptor (Homo sapiens, UniProt P35462).
In assay [1] the target is T1, Muscarinic acetylcholine receptor M1 (Homo sapiens, UniProt P11229).
T1 sequence (P11229 whole entry): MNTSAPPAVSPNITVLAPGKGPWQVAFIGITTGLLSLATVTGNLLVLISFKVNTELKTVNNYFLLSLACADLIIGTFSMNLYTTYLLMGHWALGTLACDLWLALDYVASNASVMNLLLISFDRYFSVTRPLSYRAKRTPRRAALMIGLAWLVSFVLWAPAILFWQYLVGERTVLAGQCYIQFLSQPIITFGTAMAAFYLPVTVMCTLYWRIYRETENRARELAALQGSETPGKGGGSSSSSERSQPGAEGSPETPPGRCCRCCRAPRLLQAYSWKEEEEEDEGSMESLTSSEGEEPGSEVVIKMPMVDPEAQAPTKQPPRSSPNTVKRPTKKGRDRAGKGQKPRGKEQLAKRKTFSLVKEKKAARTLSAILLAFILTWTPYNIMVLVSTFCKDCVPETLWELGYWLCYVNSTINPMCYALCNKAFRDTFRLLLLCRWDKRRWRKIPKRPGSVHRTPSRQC
Type of assay: functional, cell-based.

In another assay the target is T2, Estrogen receptor (Homo sapiens, UniProt P03372).
T2 sequence (P03372 whole entry): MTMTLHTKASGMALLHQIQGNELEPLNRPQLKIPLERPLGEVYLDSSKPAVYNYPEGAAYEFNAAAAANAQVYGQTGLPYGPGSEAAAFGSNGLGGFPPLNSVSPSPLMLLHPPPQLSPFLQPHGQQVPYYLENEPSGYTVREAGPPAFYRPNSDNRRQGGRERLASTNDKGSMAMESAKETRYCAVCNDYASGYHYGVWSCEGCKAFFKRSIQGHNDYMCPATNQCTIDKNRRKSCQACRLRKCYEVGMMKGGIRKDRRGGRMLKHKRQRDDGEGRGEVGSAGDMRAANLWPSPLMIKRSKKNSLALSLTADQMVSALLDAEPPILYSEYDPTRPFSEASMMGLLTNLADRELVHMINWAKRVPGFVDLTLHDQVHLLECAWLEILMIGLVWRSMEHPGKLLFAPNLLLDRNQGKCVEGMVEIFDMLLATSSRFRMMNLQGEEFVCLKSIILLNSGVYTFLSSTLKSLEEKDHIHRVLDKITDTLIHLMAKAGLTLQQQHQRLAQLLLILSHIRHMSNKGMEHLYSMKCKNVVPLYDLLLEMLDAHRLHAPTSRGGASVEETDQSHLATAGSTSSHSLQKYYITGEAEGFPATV

In assay [2] the target is T3, Alpha-1A adrenergic receptor (Homo sapiens, UniProt P35348).
T3 sequence (P35348 whole entry): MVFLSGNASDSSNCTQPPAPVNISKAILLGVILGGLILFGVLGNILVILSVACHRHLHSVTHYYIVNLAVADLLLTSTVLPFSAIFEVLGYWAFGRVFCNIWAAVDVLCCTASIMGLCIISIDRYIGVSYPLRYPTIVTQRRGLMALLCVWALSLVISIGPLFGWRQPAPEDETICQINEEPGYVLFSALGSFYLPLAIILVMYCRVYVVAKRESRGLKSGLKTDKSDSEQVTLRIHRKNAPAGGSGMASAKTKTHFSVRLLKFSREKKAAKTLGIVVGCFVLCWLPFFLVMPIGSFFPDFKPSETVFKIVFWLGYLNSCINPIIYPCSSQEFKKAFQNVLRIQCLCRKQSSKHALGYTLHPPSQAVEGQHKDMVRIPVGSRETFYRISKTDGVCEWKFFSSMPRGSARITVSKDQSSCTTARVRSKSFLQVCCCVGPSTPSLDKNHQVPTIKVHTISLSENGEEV
Format: functional, cell-based.

In assay [3] the target is Sodium-dependent serotonin transporter (Homo sapiens, UniProt P31645).
Sodium-dependent serotonin transporter, sequence (P31645 whole entry): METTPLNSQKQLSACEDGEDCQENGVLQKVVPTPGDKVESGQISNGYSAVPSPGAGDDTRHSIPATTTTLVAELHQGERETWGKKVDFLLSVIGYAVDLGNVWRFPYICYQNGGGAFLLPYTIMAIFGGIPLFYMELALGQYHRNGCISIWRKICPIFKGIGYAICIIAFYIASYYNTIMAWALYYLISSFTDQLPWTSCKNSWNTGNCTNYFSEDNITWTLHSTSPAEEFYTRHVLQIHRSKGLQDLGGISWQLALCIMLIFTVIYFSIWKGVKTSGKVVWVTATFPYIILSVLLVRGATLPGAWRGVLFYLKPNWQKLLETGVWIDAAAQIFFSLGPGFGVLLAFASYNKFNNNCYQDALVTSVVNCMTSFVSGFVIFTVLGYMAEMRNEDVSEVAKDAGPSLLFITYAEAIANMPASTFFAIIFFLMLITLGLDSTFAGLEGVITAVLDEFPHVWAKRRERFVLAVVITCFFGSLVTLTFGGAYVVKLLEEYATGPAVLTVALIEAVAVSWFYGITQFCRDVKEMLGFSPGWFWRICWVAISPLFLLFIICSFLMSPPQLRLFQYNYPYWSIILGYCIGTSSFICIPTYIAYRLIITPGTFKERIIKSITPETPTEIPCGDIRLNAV
Note: assay procedure not described here.

D(3) dopamine receptor, sequence (P35462 whole entry): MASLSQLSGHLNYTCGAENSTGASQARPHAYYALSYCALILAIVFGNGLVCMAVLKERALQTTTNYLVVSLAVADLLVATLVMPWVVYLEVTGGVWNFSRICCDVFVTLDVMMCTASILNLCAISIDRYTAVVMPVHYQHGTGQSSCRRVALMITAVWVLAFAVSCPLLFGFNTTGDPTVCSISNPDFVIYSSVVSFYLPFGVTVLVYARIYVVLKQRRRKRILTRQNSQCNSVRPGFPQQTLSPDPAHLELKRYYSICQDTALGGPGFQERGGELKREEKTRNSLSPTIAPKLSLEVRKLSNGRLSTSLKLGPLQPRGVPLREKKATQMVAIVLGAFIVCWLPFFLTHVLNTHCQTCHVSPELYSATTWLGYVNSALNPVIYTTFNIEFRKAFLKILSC

As usually defined, the AC50 is the midpoint of the concentration-response curve, whichever way the signal moves. Higher therefore signals activity only at high concentration. In the case of `CC(=O)O[C@H]1Cc2ccccc2N(C(N)=O)c2ccccc21` [ESLICARBAZEPINE ACETATE], the concentration at half-maximal activity (AC50) (at D(3) dopamine receptor; in assay [1]; at Estrogen receptor; in assay [2]; in assay [3]) was > 30 µM throughout.
Turning to `Cc1ccc(S(=O)(=O)NC(=O)NC2CCCCC2)cc1` [GLYCYCLAMIDE], the AC50 (at D(3) dopamine receptor; in assay [1]; on Estrogen receptor; in assay [2]; in assay [3]) was > 30 µM throughout.
For `CN1CCCN(C(c2ccccc2)c2ccc(Cl)cc2)CC1` (stereo not given) [HOMOCHLORCYCLIZINE], the AC50 at D(3) dopamine receptor was 0.0721 µM; in assay [1], 0.12 µM; on Estrogen receptor, > 30 µM; in assay [2] it was > 30 µM; in assay [3], 2.98 µM.
On to `CC(COc1ccccc1)NC(C)C(O)c1ccc(O)cc1` (stereo not given) [ISOXSUPRINE], for which the AC50 at D(3) dopamine receptor is 0.037 µM; in assay [1], > 30 µM; on Estrogen receptor, > 30 µM; in assay [2], > 30 µM; in assay [3], 5.55 µM.
In the case of `O=C(CCC/C=C\C[C@@H]1[C@@H](CC[C@@H](O)CCc2ccccc2)[C@H](O)C[C@@H]1O)OCCCCO[N+](=O)[O-]` [LATANOPROSTENE BUNOD], the AC50 on D(3) dopamine receptor was > 30 µM; in assay [1], > 10 µM; on Estrogen receptor, > 30 µM; in assay [2] it was > 30 µM; in assay [3], > 30 µM.
Consider `Cc1oc(=O)oc1COC(=O)[C@@H]1N2C(=O)[C@@H](NC(=O)[C@H](N)c3ccccc3)[C@H]2SC1(C)C` [LENAMPICILLIN], for which the AC50 on D(3) dopamine receptor is > 30 µM; in assay [1], 9.21 µM; at Estrogen receptor, > 30 µM; in assay [2], > 30 µM; in assay [3], > 30 µM.
As to `COc1ccc(OC)c(C(O)C(C)N)c1` (stereo not given) [METHOXAMINE], the AC50 is > 30 µM at D(3) dopamine receptor; > 30 µM in assay [1]; > 30 µM on Estrogen receptor; 0.021 µM in assay [2]; > 30 µM in assay [3].
As to `CC1(CCN2CCCCC2)C(=O)CCc2ccccc21` (stereo not given) [NEPINALONE], the AC50 (at D(3) dopamine receptor; in assay [1]; on Estrogen receptor; in assay [2]; in assay [3]) was > 30 µM each time.
In the case of `COC(=O)C[C@](O)(CCCC(C)(C)O)C(=O)O[C@@H]1C(OC)=C[C@]23CCCN2CCc2cc4c(cc2[C@H]13)OCO4` [OMACETAXINE MEPESUCCINATE], the AC50 (on D(3) dopamine receptor; in assay [1]; on Estrogen receptor; in assay [2]; in assay [3]) was > 30 µM each time.
Take `CC[N+](C)(CC)CCOC(=O)C(O)(c1ccccc1)C1CCCCC1` (stereo not given) [OXYPHENONIUM]: the AC50 was > 30 µM on D(3) dopamine receptor; 0.003 µM in assay [1]; > 30 µM on Estrogen receptor; > 30 µM in assay [2]; > 30 µM in assay [3].
Take `C[C@@H]1C[C@H]2[C@@H]3C[C@H](F)C4=CC(=O)C=C[C@]4(C)[C@H]3[C@@H](O)C[C@]2(C)[C@@]1(O)C(=O)CO` [PARAMETHASONE]: the AC50 (on D(3) dopamine receptor; in assay [1]; on Estrogen receptor; in assay [2]; in assay [3]) was > 30 µM in each case.
For the molecule `CCC[C@H](N[C@@H](C)C(=O)N1[C@H](C(=O)O)C[C@@H]2CCCC[C@@H]21)C(=O)OCC` [PERINDOPRIL], the AC50 (on D(3) dopamine receptor; in assay [1]; on Estrogen receptor; in assay [2]; in assay [3]) was > 30 µM throughout.
Consider `N[C@@H](Cc1ccccc1)C(=O)O` [PHENYLALANINE], for which the AC50 (on D(3) dopamine receptor; in assay [1]; on Estrogen receptor; in assay [2]; in assay [3]) was > 30 µM throughout.
As for `CCCn1cnc2c1c(=O)n(CCCCC(C)=O)c(=O)n2C` [PROPENTOFYLLINE], the AC50 on D(3) dopamine receptor was > 30 µM; in assay [1], > 30 µM; on Estrogen receptor, 28.9 µM; in assay [2], > 30 µM; in assay [3] it was > 30 µM.
On to `Clc1ccc(C(Cn2ccnc2)OCc2csc3c(Cl)cccc23)c(Cl)c1` (stereo not given) [SERTACONAZOLE], for which the AC50 at D(3) dopamine receptor is 1.78 µM; in assay [1], 9.44 µM; on Estrogen receptor, > 30 µM; in assay [2] it was 24.3 µM; in assay [3] it was 2.89 µM.
As to `CC(OCCN1CCCCCC1)(c1ccccc1)c1ccc(Cl)cc1` (stereo not given) [SETASTINE], the AC50 at D(3) dopamine receptor is 0.432 µM; in assay [1] it was 0.493 µM; on Estrogen receptor, > 30 µM; in assay [2], 28.1 µM; in assay [3], 21 µM.
The matching figures for `COc1cc(C)c2c(Oc3cccc(C(F)(F)F)c3)c(OC)cc(NC(C)CCCN)c2n1` (stereo not given) [TAFENOQUINE]: 2.57 µM, > 3 µM, 18.4 µM, > 3 µM and 10.3 µM.
In the case of `CCCSc1nc(N[C@@H]2C[C@H]2c2ccc(F)c(F)c2)c2nnn([C@@H]3C[C@H](OCCO)[C@@H](O)[C@H]3O)c2n1` [TICAGRELOR], the AC50 on D(3) dopamine receptor is 20.5 µM; in assay [1], 8.29 µM; on Estrogen receptor it was > 30 µM; in assay [2] it was > 30 µM; in assay [3] it was > 30 µM.
`c1ccc2c(SC3=NCCN3)c[nH]c2c1` [TINAZOLINE]: the AC50 was > 30 µM on D(3) dopamine receptor; > 30 µM in assay [1]; > 30 µM at Estrogen receptor; 0.003 µM in assay [2]; > 30 µM in assay [3].

Source of the values: ChEMBL document CHEMBL5291721, “A preclinical secondary pharmacology resource illuminates target-adverse drug reaction associations of marketed drugs” (Nat Commun, 2023).
